Test results as given in patent publication US10761087B2, “Choroidal neovascularization suppressor or drusen formation suppressor, and method for assessing or screening for same” (Link Genomics, Inc., priority 2015, dated 2020).

How the values were obtained:
Format in all cases: in vivo
C57BL/6J mouse = assay: Mouse laser irradiation model: CNV assessment by fluorescent fundus photograph; details: 25 mg/kg orally once a day, versus Vehicle administration group
Experimental: (§1) It is known that laser irradiation of a mouse ocular fundus induces choroidal angiogenesis and EMT (Reference document: Ishikawa, et al, Exp Eye Res. 2016 January; 142:19.25). So, zaltoprofen was assessed for the suppressive effect of CNV and EMT by using a mouse laser irradiation model. A zaltoprofen suspension was prepared by stirring 0.15 g of zaltoprofen (available from TOKYO CHEMICAL […] CO., LTD.) and 0.75 g of gum arabic (available from Wako Pure Chemical Industries, Ltd.) in 60 mL of water. A medium (Vehicle) was prepared by dissolving and stirring 0.75 g of gum arabic in 60 mL of water. Then, an ocular fundus of a C57BL/6J mouse (8-week old, N=13) was laser-irradiated at four points for each eye under a slit lump using a multi-color laser light coagulator. From directly after irradiation, a vehicle or a zaltoprofen solution (25 mg/kg) was orally administered once a day for three weeks, and the following assessments were conducted. For (1) and (3), the same individual was used. After two weeks from laser irradiation, Fluorescite Injection 500 mg (Alcon Japan Ltd.) was administered (1 mL/kg) from the caudal vein, after about 1 minute from the administration, and a fluorescent fundus photograph was taken. Four points for each eye from the taken fluorescent fundus photograph were scored on the basis of the following assessment criteria. [Assessment Criteria] [table]

Collagen Type 1 = assay: Mouse laser irradiation model: EMT assessment, Collagen Type 1 staining; details: 25 mg/kg orally once a day for three weeks
Experimental: as §1, with “three” for “two”, “mice were euthanatized by cervical dislocation, and eyeballs were extracted, and dipped and fixed in 4% paraformaldehyde phosphate buffer (Wako Pure Chemical Industries, Ltd.). […] The specimen” for “Fluorescite Injection 500 mg (Alcon Japan Ltd.)”, “subjected to photography of a stained image by” for “administered (1 mL/kg) from”, “anti-Collagen Type” for “caudal vein, after about”, “antibody under a microscope,” for “minute from the administration,”, “then quantitatively assessed.” for “a fluorescent fundus photograph was taken. Four points for each eye from the taken fluorescent fundus photograph were scored on the basis of the following assessment criteria. [Assessment Criteria] [table]”

Vimentin = assay: Mouse laser irradiation model: EMT assessment, Vimentin staining; details: 25 mg/kg orally once a day for three weeks
Experimental: as §1, with “three” for “two”, “mice were euthanatized by cervical dislocation, and eyeballs were extracted, and dipped and fixed in 4% paraformaldehyde phosphate buffer (available” for “Fluorescite Injection 500 mg (Alcon Japan Ltd.) was administered (1 mL/kg)”, “Wako Pure Chemical Industries, Ltd.). […]” for “the caudal vein, after about 1 minute from the administration, and a fluorescent fundus photograph was taken. Four points for each eye from the taken fluorescent fundus photograph were scored on the basis of the following assessment criteria. [Assessment Criteria] [table]”

CC(C(=O)O)c1ccc2c(c1)CC(=O)c1ccccc1S2 (stereo not drawn) [Zaltoprofen, zaltoprofen]
CNV by laser irradiation (fluorescent fundus photographs) (C57BL/6J mouse; FIG. 22): significantly suppressed | CNV score by laser irradiation (C57BL/6J mouse; two weeks after laser irradiation): significantly lower | EMT suppressive effect (Collagen Type 1 assessment) (Collagen Type 1): significant suppressive effect for EMT | Stained volume of Collagen Type 1 (Collagen Type 1; versus Vehicle administration group, p<0.05): significantly decreases | EMT in the laser irradiation model (Vimentin): suppresses EMT | Vimentin positive area (Vimentin; versus Vehicle administration group): reduced
